From ChEMBL document CHEMBL1201862, “PubChem BioAssay data set” (2004) come the findings set out here.

Holding throughout (experiment): NCI-60 cell line screen, 48 h
Test [1] deals with M14.
Test [2] concerns OVCAR-4.
The test system of test [3] is HOP-92.
The subject of test [4] is T47D.
Test [5] has as its system OVCAR-5.
Test [6] relates to SN12C.
Test [7] has as its system HT-29.
In test [8] the test system is EKVX.
Test [9] concerns SR.
Test [10] relates to MOLT-4.
The subject of test [11] is OVCAR-8.
Test [12] deals with K562.
The test system of test [13] is NCI-H460.
In test [14] the test system is SF-295.
Test [15] has as its system SF-539.
Test [16] deals with SK-MEL-5.
Test [17] concerns NCI/ADR-RES.
Test [18] relates to SK-MEL-2.
In test [19] the test system is HOP-62.

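Cells were grown in 96-well plates and exposed to each compound for 48 hours at five concentrations; endpoints were interpolated linearly between bracketing concentrations, or set to the highest concentration if not reached. GI50 = concentration required for 50% inhibition of growth.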 Activity calls are given as the source filed them. Rule as the data show it: active = GI50 up to about 1.1 µM and inactive = higher. Some results are limits rather than exact numbers.

On to `Cc1sc2nc3n(sc4nc5sc(C)c(C)c5c(=O)n43)c(=O)c2c1C`, for which the GI50 in test [1] was > 100 µM (inactive); in [2] it was 63.8 µM (inactive); in [3], > 100 µM (inactive); in test [4], 0.935 µM (active); in test [5], > 100 µM (inactive); in [6] it was > 100 µM (inactive). In addition, the GI50 in test [7] was > 100 µM (inactive); in [8], 30.3 µM (inactive); in test [9], 75.5 µM (inactive); in test [10] it was 23 µM (inactive); in test [11], > 100 µM (inactive); in test [12], 93.8 µM (inactive). Also, the GI50 in test [13], in test [14], in [15], in test [16], in test [17] and in [18] was > 100 µM (inactive) in each case.

`CN1CC[C@]23c4c5ccc(O)c4O[C@H]2C(O)CC[C@@]3(O)[C@H]1C5` (some centres not stated): the GI50 in test [1], in test [2], in test [3], in test [4], in [5] and in [6] was > 100 µM (inactive) each time. In addition, the GI50 in test [7], in [8], in test [9], in test [19], in [10] and in test [11] was > 100 µM (inactive) each time. For the same compound, the GI50 in test [14], in test [15], in test [16], in [17] and in test [18] was > 100 µM (inactive) throughout.

Take `Cc1ccc(S(=O)(=O)NC(=O)NC(C(=O)O)C(C)C)cc1` (configuration not stated): the GI50 in [1], in test [2], in test [3], in [4], in test [5] and in [6] was > 100 µM (inactive) each time. Besides, the GI50 in [7], in test [9], in test [19], in test [10], in test [11] and in test [12] was > 100 µM (inactive) throughout. For the same compound, the GI50 in [13], in test [14], in test [15], in test [16], in test [17] and in [18] was > 100 µM (inactive) in each case.

Consider `CCN(CC)CCOC(=O)CCN1CC2CCC(CC2)C1`, for which the GI50 in test [1], in [2], in test [3], in test [4], in [5] and in test [7] was > 100 µM (inactive) each time. The GI50 in test [8], in test [9], in test [10], in [11], in test [12] and in [13] was > 100 µM (inactive) throughout. Also, the GI50 in test [14], in [15], in test [16], in [17] and in test [18] was > 100 µM (inactive) throughout.

As to `CC(=O)OCC1OC(O/C=C(\CN=[N+]=[N-])C(C)=O)C(OC(C)=O)C(OC(C)=O)C1OC(C)=O` (configuration not stated), the GI50 was 8 µM (inactive) in test [1]; 12.5 µM (inactive) in test [2]; 6.15 µM (inactive) in test [3]; 3.67 µM (inactive) in [4]; 16.5 µM (inactive) in [5]; 7.96 µM (inactive) in test [6]. The GI50 in [7] was 11.4 µM (inactive); in [8], 14.7 µM (inactive); in test [9] it was 2.37 µM (inactive); in test [19] it was 25.6 µM (inactive); in test [10], 2.53 µM (inactive); in test [11] it was 6.01 µM (inactive). Also, the GI50 in test [12] is 5.02 µM (inactive); in test [13], 21.6 µM (inactive); in test [14], 37.2 µM (inactive); in [16] it was 13.2 µM (inactive); in [17], 21 µM (inactive); in [18], 16.1 µM (inactive).

Turning to `CC1(C)C/C=C\CCC(O)C(O)CCC(C)(C)C1=O` (configuration not stated), the GI50 in test [2], in test [3], in [4], in [5], in [6] and in test [7] was > 100 µM (inactive) throughout. Further, the GI50 in test [8], in test [9], in test [19], in [10], in [11] and in test [12] was > 100 µM (inactive) in each case. In addition, the GI50 in test [13], in [14], in test [15], in [16], in test [17] and in test [18] was > 100 µM (inactive) throughout.

Take `CC(C)=CC[C@]12CCN[C@H]1N(S(=O)(=O)c1ccccc1)c1ccccc12`: the GI50 in test [2] was 14.3 µM (inactive); in test [3], 12.2 µM (inactive); in test [4], 15.2 µM (inactive); in test [5], > 100 µM (inactive); in [6], 13.6 µM (inactive); in test [7] it was 18.5 µM (inactive). The GI50 was 8.17 µM (inactive) in test [8]; 18.3 µM (inactive) in test [9]; 15.3 µM (inactive) in test [19]; 21.1 µM (inactive) in test [10]; 16.8 µM (inactive) in test [11]; 16.7 µM (inactive) in test [12]. Further, the GI50 in test [13] was 14.5 µM (inactive); in test [14] it was 14.8 µM (inactive); in test [15], 20.3 µM (inactive); in test [16], 14.9 µM (inactive); in test [17], 14.8 µM (inactive); in test [18], 14.2 µM (inactive).

On to `COC(=O)C1=NN2c3ccccc3C(=O)OCCC2(C)C1` (configuration not stated), for which the GI50 in [2], in test [3], in test [4], in [5], in test [6] and in test [7] was > 100 µM (inactive) each time. Also, the GI50 in test [8], in [9], in test [19], in [10], in test [11] and in test [12] was > 100 µM (inactive) throughout. For the same compound, the GI50 was 68.2 µM (inactive) in test [13]; > 100 µM (inactive) in test [14]; > 100 µM (inactive) in test [15]; > 100 µM (inactive) in [16]; > 100 µM (inactive) in test [17]; > 100 µM (inactive) in test [18].

As to `O=C(/C=C/c1ccccc1)CCC1C(=O)c2ccccc2C1=O`, the GI50 in test [1] was > 100 µM (inactive); in test [2], 31.3 µM (inactive); in test [3], > 100 µM (inactive); in test [4] it was > 100 µM (inactive); in test [5], > 100 µM (inactive); in test [6] it was > 100 µM (inactive). For the same compound, the GI50 in [7] is > 100 µM (inactive); in [8] it was > 100 µM (inactive); in [9], 66.2 µM (inactive); in [10] it was > 100 µM (inactive); in test [11], > 100 µM (inactive); in test [12], > 100 µM (inactive). Moreover, the GI50 in test [13], in test [14], in test [15], in [16], in test [17] and in test [18] was > 100 µM (inactive) throughout.

`N=C(N)NS(=O)(=O)c1ccc(Nc2c3ccccc3nc3c(C(=O)NC(CO)(CO)CO)cccc23)cc1`: the GI50 in test [1] is 30.6 µM (inactive); in [2], > 10 µM (inactive); in test [3], 14.4 µM (inactive); in test [4], 4.7 µM (inactive); in [5], 11.9 µM (inactive); in [6] it was 26.5 µM (inactive). Besides, the GI50 is 21.3 µM (inactive) in test [7]; > 100 µM (inactive) in test [8]; 12.5 µM (inactive) in test [9]; 13.6 µM (inactive) in test [19]; 2.79 µM (inactive) in test [10]; 29 µM (inactive) in test [11]. Moreover, the GI50 in test [12] was 24.2 µM (inactive); in test [13], 2.88 µM (inactive); in test [14], 16.6 µM (inactive); in test [16], 17.5 µM (inactive); in [17], > 100 µM (inactive); in [18], 19.1 µM (inactive).

In the case of `COc1cc2c(cc1OCCCN1C(=O)c3cccc4cccc(c34)C1=O)N=C[C@@H]1CCCN1C2=O`, the GI50 in [1] was 36.2 µM (inactive); in [2] it was 31.7 µM (inactive); in test [3], 22.2 µM (inactive); in test [4] it was 19.5 µM (inactive); in [5] it was > 89.1 µM (inactive); in [6] it was 48.5 µM (inactive). Besides, the GI50 was 31.3 µM (inactive) in test [7]; > 100 µM (inactive) in [8]; 1.26 µM (inactive) in test [9]; > 86.7 µM (inactive) in test [19]; 14 µM (inactive) in [10]; 36.6 µM (inactive) in test [11]. In addition, the GI50 was 22.5 µM (inactive) in [12]; 22.3 µM (inactive) in [13]; > 95.1 µM (inactive) in [14]; 83.6 µM (inactive) in [15]; 20.4 µM (inactive) in test [16]; 41.8 µM (inactive) in [17]. Further, the GI50 in [18] was 65.5 µM (inactive).
